These results are taken from US6255327A, “Diphenyl-substituted heterocycles, processes for preparing them and their use as pharmaceutical compositions” (Boehringer Ingelheim Pharma KG, priority 1998, dated 2001).

By Ki is commonly meant a dissociation constant, usually derived from enzyme kinetics or from competition with a known ligand. A high value points to weaker binding.

One series relates to AMPA receptor. Nature of the series: Inhibition of the cainate-induced signal at the AMPA receptor, electrophysiology on neuronal cells (patch-clamp method). The class given is cell-based. Particulars: test concentration of 100 μM. The procedure:
The testing was carried out at a test concentration of 100 μM.

For series [1], the target named is "Na^+ channel site 2" binding site. Nature of the series: Affinity to the "Na^+ channel site 2" binding site. The note with it: typically at a test concentration of 10 μM. The procedure: The testing was typically carried out at a test concentration of 10 μM.
For another series, the system named is neurones in mouse brains. The note with it: after systemic administration; cited from earlier work.

`c1ccc(-c2ncn(-c3ccccc3)n2)cc1` [Example 1, 1,3-Diphenyl-1,2,4-triazole]: the “AMPA Inh. [%] (inhibition of the cainate-induced signal at the AMPA receptor)” value with AMPA receptor turned out to be 56%.
Same read-out and setting: the figure for `COc1ccccc1-n1cnc(-c2ccccc2)n1` [Example 2, 1-(2-methoxyphenyl)-3-phenyl-1,2,4-triazole] is 96%.
For `CN(C)CCOc1ccccc1-n1cnc(-c2ccccc2)n1` [Example 3, 1-{2-[2(N,N-Dimethylamino)ethyl]oxy-phenyl}-3-phenyl-1,2,4-triazole], the Ki in series [1] came out at 3700 nM. Also, the “AMPA Inh. [%] (inhibition of the cainate-induced signal at the AMPA receptor)” value in the series on AMPA receptor is reported as 74%.
In the same order, the values of `CN(C)CCOc1ccccc1-c1ncn(-c2ccccc2)n1` [Example 5, 3-{2-[2(N,N-Dimethylamino)ethyl]oxy-phenyl}-1-phenyl-1,2,4-triazole] are 700 nM and 76%.
Taken in the same sequence, the figures for `CN(C)CCOc1ccccc1-c1n[nH]c(-c2ccccc2)n1` [Example 7, 3-{2-[2(N,N-Dimethylamino)ethyl]oxy-phenyl}-5-phenyl-1,2,4-triazole] were 1200 nM and 39%.
Taken in the same sequence, the figures for `CN(C)CCOc1ccccc1-c1coc(-c2ccccc2)n1` [Example 8, 4-{2-[2(N,N-dimethylamino)ethyl]oxy-phenyl}-2-phenyl-1,3-oxazole] were 4600 nM and 77%.
`CN(C)CCOc1ccccc1-c1c[nH]c(-c2ccccc2)n1` [Example 9, 4-{2-[2(N,N-dimethylamino)ethyl]oxy-phenyl}-2-phenyl-imidazole] yielded an inhibition constant Ki in series [1] of 1800 nM.
`CN(C)CCOc1ccccc1-c1cnc(-c2ccccc2)o1` [Example 10, 5-{2-[2(N,N-dimethylamino)ethyl]oxy-phenyl}-2-phenyl-1,3-oxazole] came in with a Ki in series [1] of 990 nM. The “AMPA Inh. [%] (inhibition of the cainate-induced signal at the AMPA receptor)” value in the series on AMPA receptor was found to be 98%.
`CN(C)CCOc1ccccc1-c1nn(-c2ccccc2)c(=O)o1` [Example 12, 5-{2-[2(N,N-dimethylamino)ethyl]oxy-phenyl}-3-phenyl-1,3,4-oxadiazol-2-one] returned a Ki in series [1] of 990 nM.
`COc1ccccc1-c1c[nH]c(-c2ccccc2)c1` [Example 13, 3-(2-methoxyphenyl)-5-phenyl-1H-pyrrole]: the Ki in series [1] came to 1100 nM.
Consider `COc1ccccc1-c1cnn(-c2ccccc2)c1` [Example 17, 4-(2-methoxyphenyl)-1-phenyl-pyrazole], for which affinity in series [1] was put at a Ki of 390 nM. Also, in the series on AMPA receptor, the “AMPA Inh. [%] (inhibition of the cainate-induced signal at the AMPA receptor)” value was 53%.
`CN(C)CCOc1ccccc1N1C(=O)NC(c2ccccc2)C1=O` (stereo not shown) [Example 19, 3-{2-[2(N,N-dimethylamino)ethyl]oxy-phenyl}-5-phenyl-imidazolidin-2,4-dione]: the Ki in series [1] stood at 550 nM.
The molecule `CN(C)CCOc1ccccc1-n1cc(-c2ccccc2)[nH]c1=O` [Example 20, 1-{2-[2(N,N-dimethylamino)ethyl]oxy-phenyl}-4-phenyl-1,3-dihydro-imidazole-2-one] yielded a Ki in series [1] of 360 nM.
On the same count and under the same terms, the figure for `CN(C)CCOc1ccccc1C1NC(=O)N(c2ccccc2)C1=O` (stereo not shown) [Example 21, 5-{2-[2(N,N-dimethylamino)ethyl]oxy-phenyl}-3-phenyl-imidazolidin-2,4-dione] is 710 nM.
The molecule `CN(C)CCOc1ccccc1-c1cn(-c2ccccc2)c(=O)[nH]1` [Example 22, 4-{2-[2(N,N-dimethylamino)ethyl]oxy-phenyl}-1-phenyl-1,3-dihydro-imidazol-2-one] displayed a Ki in series [1] of 1300 nM.
With `CN(C)CCOc1ccccc1-c1nc(-c2ccccc2)nn1C` [Example 23, 5-{2-[2(N,N-dimethylamino)-ethyl]oxy-phenyl}-1-methyl-3-phenyl-1,2,4-triazole], the affinity in series [1] corresponds to a Ki of 1400 nM.
The same measure, in the same setting: the figure for `CN(C)CCOc1ccccc1-c1ccc(-c2ccccc2)[nH]1` [Example 24, 2-{2-[2(N,N-dimethylamino)-ethyl]oxy-phenyl}-5-phenyl-pyrrole] is 460 nM; for `CN(C)CCOc1ccccc1-c1nc(-c2ccccc2)c[nH]1` [Example 25, 2-{2-[2(N,N-dimethylamino)-ethyl]-oxy-phenyl}-4-phenyl-imidazole] it is 1300 nM.
As for `N[C@@H](CCC(=O)O)C(=O)O` [glutamate], the “destruction of neurones in mouse brains (in words)” value in the series with neurones in mouse brains is given as “neurones are destroyed in mouse brains”.
